According to patent US20240192237A1 (curantis UG, priority 2021, published 2024):

Experiments:
[1] = test system: patients with schizophrenia; experiment: PANSS assessment in clinical trials CBD-CT1 and CBD-PT; type: in vivo; conditions: for PANSS Positive Score: baseline 22.9 ± 4.3; for PANSS Negative Score: baseline 22.5 ± 6.0; for PANSS General Score: baseline 45.0 ± 8.2; for PANSS Total Score: baseline 90.4 ± 14.1
Excerpt: The Ethics Committee of the Faculty of Medicine of University of Cologne approved the clinical trial with application number 00-074 on Aug. 6, 2000.
All randomized patients complied with all inclusion and exclusion criteria: age between 18 and 50, male and female, persisting inpatient hospitalization, specific DSM-IV diagnoses, initial Brief Psychiatric Rating Scale (BPRS) score≥36, understanding of the study objectives and the course of the study, legal capacity, no pregnancy or lactation phase, reliable contraception.
CBD was administered as an oral dose in a capsule formulation. The dose was increased during the first week from 200 mg/d to 800 mg/d (4×200 mg) and remained at this level for the rest of the study period. Due to serious unwanted effects, the dose could be reduced irreversibly to 600 mg/d starting with day 15. […] Dose applications, blood sampling, and assessment of PANSS followed the time schedule presented below. Additional treatment with 7.5 mg lorazepam per day during the whole study period was permitted.
On 28 Jul. 2005 this clinical trial with application number 04-153 was approved by the Ethics Committee of the Faculty of Medicine of University of Cologne.
Eighteen patients with a diagnosis of schizophrenia or schizophreniform disorder should be included in this trial per protocol. Because dropouts had to be replaced by a new patient a total number of 29 patients was randomized from February 2006 to June 2008. All randomized patients complied with all inclusion and exclusion criteria: age between 18 and 65, male and female, specific DSM-IV diagnoses, initial BPRS score≥36, no pregnancy or lactation phase, reliable contraception, no lack of accountability, no other relevant interferences, no treatment with depot-antipsychotics during the last three months, no severe internal or neurological illness, no QTc prolongation, no acute suicidality nor endangerment of others by the patient. […] Treatment lasted four weeks: the first period with two weeks of CBD or placebo treatment was followed by a second period with a two-week treatment of placebo or CBD, respectively. There was no washout period between the two treatments. […] The dose could be reduced irreversibly to 400 mg/d in case of serious unwanted effects. […] The PANSS was applied at baseline and day 14 and 28. Dose applications, blood sampling, and assessment of PANSS followed the time schedule presented below. Additional treatment with 5.0 mg lorazepam per day during the whole study period was permitted.
The Positive and Negative Syndrome Scale (PANSS) is a psychopathological scale and was developed to assess the symptom severity in patients with schizophrenia. It was first described by Kay et al. in 1987 (Kay S R, Fiszbein A, Opler L A. “The positive and negative syndrome scale (PANSS) for schizophrenia”. Schizophrenia bulletin. 1987; 13(2):261-276.) and includes 30 questions which are a combination of 18 items of the BPRS and 12 items of the Psychopathology Rating Schedule ([…]) (see Leucht S, Kane J M, Kissling W, Hamann J, Etschel E, Engel R R. “What does the PANSS mean?” Schizophrenia research. 2005; 79(2-3):231-238.) All questions are rated on a 7-point scale from 1=absence of symptoms to 7=extremely distinct symptoms. Therefore, the PANSS total score (sum score of all 30 items) can range from 30 to 210. Here applies: the lower the PANSS score the better/healthier is the patient.
The positive scale contains delusion, disorganized thoughts, hallucination, excitement, grandiosity, suspiciousness/persecution, and animosity. Blunted affect, emotional withdrawal, poor rapport, passive/apathetic social withdrawal, difficulty in abstract thinking, stereotyped thinking, lack of spontaneity, and flow of conversation are part of the negative scale. […]

[2] = test system: patients with schizophrenia; experiment: Estimated correlation between CBD plasma concentration and percentage change of PANSS score at day 14; type: in vivo; conditions: for Estimated CBD plasma concentration, PANSS_N, average / Estimated CBD plasma concentration, PANSS_P, average / Estimated CBD plasma concentration, PANSS_T, average / Estimated CBD plasma concentration, PANSS_G, average: two weeks after commencement
Excerpt: In general, it is expected that a percentage change of 50% of the PANSS score(s) vis-à-vis the baseline score after four to six weeks of treatment indicates a significant improvement of the PANSS score(s) (see Correll C. U., “Quantifying clinical relevance in the treatment of schizophrenia, Clinical Therapeutics”, Vol. 33, Number 12, 2011, B16-B39).
Since the PANSS score(s) cover symptoms experienced or observed during the preceding 7 days, the minimum required observation period is one week. To avoid an overlap to the observation of initial symptoms, a treatment period of 2 weeks is considered a minimum reliable period. Therefore, we analyzed the treatment effect after 2 weeks of treatment. Due to the analyzed shortened treatment period a percentage change of 25% of the PANSS score(s) vis-à-vis the baseline score indicates a significant improvement of the PANSS score(s).

SMILES: C=C(C)[C@@H]1CCC(C)=C[C@H]1c1c(O)cc(CCCCC)cc1O [CBD, cannabidiol]
- PANSS Positive Score ([1]; Day 14, mean, SD 4.5, N 36): 18.9
- PANSS Negative Score ([1]; Day 14, mean, SD 5.6, N 36): 19.0
- PANSS General Score ([1]; Day 14, mean, SD 9.6, N 36): 38.9
- PANSS Total Score ([1]; Day 14, mean, SD 17.0, N 36 (CT1 17|PT 19), oral CBD capsules 800 mg/d (CT1) or 600 mg/d (PT)): 76.9
- PANSS Positive Score ([1]; Day 28, mean, SD 5.4, N 24): 16.9
- PANSS Negative Score ([1]; Day 28, mean, SD 6.2, N 24): 16.1
- PANSS General Score ([1]; Day 28, mean, SD 13.1, N 24): 35.9
- PANSS Total Score ([1]; Day 28, mean, SD 23.2, N 24 (CT1 14|PT 10)): 68.9
- Estimated CBD plasma concentration, PANSS_N, average ([2]; PANSS delta 10% vs baseline, range (12.9; 28.9)): 17.8 µg/L
- Estimated CBD plasma concentration, PANSS_P, average ([2]; PANSS delta 10% vs baseline, range (13.0; 35.7)): 19.1 µg/L
- Estimated CBD plasma concentration, PANSS_T, average ([2]; PANSS delta 10% vs baseline, range (13.4; 25.5)): 17.5 µg/L
- Estimated CBD plasma concentration, PANSS_N, average ([2]; PANSS delta 20% vs baseline, range (25.7; 57.7)): 35.6 µg/L
- Estimated CBD plasma concentration, PANSS_P, average ([2]; PANSS delta 20% vs baseline, range (26.0; 71.4)): 38.2 µg/L
- Estimated CBD plasma concentration, PANSS_G, average ([2]; PANSS delta 20% vs baseline, range (26.6; 49.2)): 34.5 µg/L
- Estimated CBD plasma concentration, PANSS_T, average ([2]; PANSS delta 20% vs baseline, range (26.7; 50.9)): 35.0 µg/L
- Estimated CBD plasma concentration, PANSS_N, average ([2]; PANSS delta 25% vs baseline, range (32.2; 72.1)): 44.5 µg/L
- Estimated CBD plasma concentration, PANSS_P, average ([2]; PANSS delta 25% vs baseline, range (32.5; 89.3)): 47.7 µg/L
- Estimated CBD plasma concentration, PANSS_G, average ([2]; PANSS delta 25% vs baseline, range (33.2; 61.5)): 43.1 µg/L
- Estimated CBD plasma concentration, PANSS_T, average ([2]; PANSS delta 25% vs baseline, range (33.4; 63.7)): 43.8 µg/L
- Estimated CBD plasma concentration, PANSS_N, average ([2]; PANSS delta 30% vs baseline, range (38.6; 86.6)): 53.4 µg/L
- Estimated CBD plasma concentration, PANSS_P, average ([2]; PANSS delta 30% vs baseline, range (39.1; 107.1)): 57.2 µg/L
- Estimated CBD plasma concentration, PANSS_G, average ([2]; PANSS delta 30% vs baseline, range (39.8; 73.8)): 51.8 µg/L
- Estimated CBD plasma concentration, PANSS_T, average ([2]; PANSS delta 30% vs baseline, range (40.1; 76.4)): 52.6 µg/L
- Estimated CBD plasma concentration, PANSS_N, average ([2]; PANSS delta 40% vs baseline, range (51.5; 115.4)): 71.2 µg/L
- Estimated CBD plasma concentration, PANSS_P, average ([2]; PANSS delta 40% vs baseline, range (52.1; 142.8)): 76.3 µg/L
- Estimated CBD plasma concentration, PANSS_G, average ([2]; PANSS delta 40% vs baseline, range (53.1; 98.4)): 69.0 µg/L
- Estimated CBD plasma concentration, PANSS_T, average ([2]; PANSS delta 40% vs baseline, range (53.4; 101.9)): 70.1 µg/L
- Estimated CBD plasma concentration, PANSS_N, average ([2]; PANSS delta 50% vs baseline, range (64.3; 144.3)): 89.0 µg/L
- Estimated CBD plasma concentration, PANSS_P, average ([2]; PANSS delta 50% vs baseline, range (65.1; 178.5)): 95.4 µg/L
- Estimated CBD plasma concentration, PANSS_G, average ([2]; PANSS delta 50% vs baseline, range (66.4; 123.0)): 86.3 µg/L
- Estimated CBD plasma concentration, PANSS_T, average ([2]; PANSS delta 50% vs baseline, range (66.8; 127.3)): 87.6 µg/L
- Estimated CBD plasma concentration, PANSS_P, average ([2]; PANSS delta 60% vs baseline, range (78.1; 214.2)): 114.5 µg/L
- Estimated CBD plasma concentration, PANSS_G, average ([2]; PANSS delta 60% vs baseline, range (79.7; 147.6)): 103.5 µg/L
- Estimated CBD plasma concentration, PANSS_T, average ([2]; PANSS delta 60% vs baseline, range (80.1; 152.8)): 105.1 µg/L
- Estimated CBD plasma concentration, PANSS_N, average ([2]; PANSS delta 70% vs baseline, range (90.1; 202.0)): 124.6 µg/L
- Estimated CBD plasma concentration, PANSS_P, average ([2]; PANSS delta 70% vs baseline, range (91.1; 249.9)): 133.6 µg/L
- Estimated CBD plasma concentration, PANSS_G, average ([2]; PANSS delta 70% vs baseline, range (93.0; 172.2)): 120.8 µg/L
- Estimated CBD plasma concentration, PANSS_T, average ([2]; PANSS delta 70% vs baseline, range (93.5; 178.3)): 122.6 µg/L
- Estimated CBD plasma concentration, PANSS_N, average ([2]; PANSS delta 75% vs baseline, range (96.5; 216.4)): 133.5 µg/L
- Estimated CBD plasma concentration, PANSS_P, average ([2]; PANSS delta 75% vs baseline, range (97.6; 267.8)): 143.1 µg/L
- Estimated CBD plasma concentration, PANSS_G, average ([2]; PANSS delta 75% vs baseline, range (99.6; 184.5)): 129.4 µg/L
- Estimated CBD plasma concentration, PANSS_T, average ([2]; PANSS delta 75% vs baseline, range (100.1; 191.0)): 131.4 µg/L
- Estimated CBD plasma concentration, PANSS_N, average ([2]; PANSS delta 80% vs baseline, range (102.9; 230.8)): 142.4 µg/L
- Estimated CBD plasma concentration, PANSS_P, average ([2]; PANSS delta 80% vs baseline, range (104.1; 285.6)): 152.6 µg/L
- Estimated CBD plasma concentration, PANSS_G, average ([2]; PANSS delta 80% vs baseline, range (106.3; 196.8)): 138.0 µg/L
- Estimated CBD plasma concentration, PANSS_T, average ([2]; PANSS delta 80% vs baseline, range ([…]; 203.7)): 140.2 µg/L
- Estimated CBD plasma concentration, PANSS_N, average ([2]; PANSS delta 90% vs baseline, range (115.8; 259.7)): 160.2 µg/L
- Estimated CBD plasma concentration, PANSS_P, average ([2]; PANSS delta 90% vs baseline, range (117.2; 321.3)): 171.7 µg/L
- Estimated CBD plasma concentration, PANSS_G, average ([2]; PANSS delta 90% vs baseline, range (119.5; 221.4)): 155.3 µg/L
- Estimated CBD plasma concentration, PANSS_T, average ([2]; PANSS delta 90% vs baseline, range (120.2; 229.2)): 157.7 µg/L
- Estimated CBD plasma concentration, PANSS_N, average ([2]; PANSS delta 100% vs baseline, range (128.7; 288.5)): 178.0 µg/L
- Estimated CBD plasma concentration, PANSS_P, average ([2]; PANSS delta 100% vs baseline, range (130.2; 357.0)): 190.8 µg/L
- Estimated CBD plasma concentration, PANSS_G, average ([2]; PANSS delta 100% vs baseline, range (132.8; 246.0)): 172.5 µg/L
- Estimated CBD plasma concentration, PANSS_T, average ([2]; PANSS delta 100% vs baseline, range (133.5; 254.6)): 175.2 µg/L
- CBD plasma concentration that results in the required percentage change (25%) of the PANSS score(s) ([2]; after 2 weeks of treatment): at least 25 μg/l
